Assay results published in patent US9889145B2, “Methods to treat infections” (priority 2013, dated 2018).
“Also recorded” adds a separate entry of the source.

Key:
[1] = test system: PGE-2; design: species or system mice; details: mouse, in vivo
[2] = test system: Arg2; assay: Arg2 in lung and liver of Bt-infected mice (Western blot, immunohistochemical staining); type: in vivo
[3] = test system: IL-1α, IL-6 and KC; assay: IL-1α, IL-6 and KC in the lungs of Bt-infected mice; type: in vivo; details: 80 mg/kg Celecoxib vs mock; 48 hours post-infection with Bt
[4] = test system: arginase; assay: Quantitative assay for urea in lungs of Bt-infected mice (indirect measurement of Arg activity); type: in vivo; details: 80 mg/kg Celecoxib vs mock-treated Bt-infected mice
[5] = test system: B. thailandensis; design: species or system Burkholderia thailandensis; details: in vivo
[6] = test system: BALB/c mice infected with B. thailandensis; details: mouse, in vivo
[7] = test system: PGE-2; type: in vivo, mice; details: n=2
[8] = daily maximum dose of 15 mg/kg in mice, cited from earlier work
[9] = test system: Burkholderia thailandensis (Bt); type: cell-based
[10] = test system: Arg2; design: species or system mice; details: mouse, in vivo, 15 mg/kg
[11] = test system: PGE-2; type: cell-based, murine
[12] = test system: B. pseudomallei; type: in vivo, Burkholderia pseudomallei; details: n=2
[13] = test system: B. pseudomallei; type: cell-based, Burkholderia pseudomallei
[14] = test system: Arg2; type: cell-based, mice
[15] = test system: iNOS; type: cell-based
[16] = test system: NO; type: cell-based, mice
[17] = test system: Burkholderia pseudomallei strain 1026b; type: in vivo
[18] = test system: NO; type: cell-based, mice; remark: listed apart in the source
[19] = test system: iNOS; type: cell-based, mice; details: 4 hours
[20] = test system: CD4+ T-cells; assay: IFN-γ and IL-2 production by stimulated CD4+ T-cells; type: cell-based, mice; details: low dose (100 pg/ml) or high dose (10,000 pg/ml) PGE-2; Day 6; vs stimulated

For `Cc1ccc(-c2cc(C(F)(F)F)nn2-c2ccc(S(N)(=O)=O)cc2)cc1` [Celecoxib, 4-[5-(4-methylphenyl)-3-(trifluoromethyl)pyrazol-1-yl]benzenesulfonamide], the “PGE-2 in the lungs (ELISA)” value [1] was “PGE-2 reduction”, the “number of Arg2 positively-stained cells in lungs (immunohistochemical staining)” value ([2]; 80 mg/kg Celecoxib vs mock-treated Bt-infected mice) was “reduction in the number of Arg2 positively-stained cells” and the “Arg2 in the lungs (Western blot)” value ([2]; 80 mg/kg Celecoxib vs mock-treated mice, 48 hours after pulmonary Bt infection) was “reduction in Arg2 in the lungs”. For the same compound, the “IL-1α in the lungs” value [3] was “reduced”, the “IL-6 in the lungs” value [3] was “reduced” and the “KC in the lungs” value [3] was “reduced”. For the same compound, the “urea levels in the lungs” value [4] was “lower”, the “bacterial burden in liver” value [5] was “reduction in bacterial burdens” and the “bacterial burden in lung” value [5] was “reduction in bacterial burdens”. For the same compound, the “bacterial burden in spleen” value [5] was “reduction in bacterial burdens” and the “lung inflammation (histological examination)” value [6] was “reduced”.
For `CS(=O)(=O)Nc1ccc([N+](=O)[O-])cc1OC1CCCCC1` [NS398, N-[2-(cyclohexyloxy)-4-nitrophenyl]-methanesulfonamide], the “PGE-2 concentration in lung tissue” value [7] is given as “reduce PGE-2 concentration in lung tissue”, the “PGE-2 concentration in stomach tissue” value [7] is given as “reduce PGE-2 concentration in stomach tissue” and the “lung PGE-2” value ([8]; previously documented pharmacological efficacy) is given as “reducing lung PGE-2”. The associated toxicity ([8]; previously documented) was “without any associated toxicity”, the “survival of intracellular Bt” value [9] was “decrease in survival of intracellular bacteria” and the “Arg2 expression in lungs (Western blot, densitometry)” value [10] was “decreases”. For the same compound, the “PGE-2 levels in supernatants” value [11] was “reduced”, the “growth of B. pseudomallei in lung tissue (CFU/mg)” value [12] was “suppresses the growth of B. pseudomallei in lung tissue” and the “growth of B. pseudomallei in stomach tissue (CFU/mg)” value [12] was “suppresses the growth of B. pseudomallei in stomach tissue”. The Bps intracellular survival [13] was “reduction in Bps survival; also recorded: enhanced intracellular killing of B. pseudomallei”, the Arg2 expression [14] was “reduction in Arg2 expression” and the iNOS expression [15] was “two-fold increase in iNOS expression”. For the same compound, the “NO production (nitrite)” value [16] was “higher production of NO; also recorded: increase in nitrite”, the “bacteria recovered from the lungs at the study endpoint” value ([17]; in vivo) was “No bacteria were recovered” and the “bacteria recovered from the lungs of the two animals euthanized on day 5 and day 7 (hind leg paralysis)” value ([17]; in vivo) was “No bacteria were recovered”. The “colonization of spleen and liver” value ([17]; in vivo) was 20-100 cfu, the “first signs of illness” value ([17]; in vivo) was ≥ 5 and the “lung bacteria of the one exceptional animal at the study endpoint” value ([17]; in vivo) was 104 cfu. For the same compound, the “weight loss throughout the study” value ([17]; in vivo) was “no evidence of weight loss”, the “survival / recovery over 10 days” value ([17]; n=8) was “appeared to have recovered from the infection; also recorded: protection against lethal pulmonary melioidosis” and the NO production [18] was “higher production of NO”. The “iNOS mRNA expression” value [19] was “no differences in iNOS mRNA expression; also recorded: did not observe any apparent change in iNOS mRNA expression”.
With `CCCCC[C@H](O)/C=C/[C@H]1[C@H](O)CC(=O)[C@@H]1C/C=C\CCCC(=O)O` [PGE-2] the “IFN-gamma production by stimulated CD4+ T-cells” value [20] was “reduces”, the “IL-2 production by stimulated CD4+ T-cells” value [20] was “reduces” and the “increase in Arg2 expression” value [14] was 376 fold. The “NO (nitrite) levels after adding PGE-2” value [16] was “reduced NO levels; also recorded: reduced nitrite levels”, the “NO levels after adding PGE-2” value [18] was “reduced NO levels” and the “iNOS mRNA expression” value [19] was “no differences in iNOS mRNA expression; also recorded: did not observe any apparent change in iNOS mRNA expression”.
With `N=C(NO)NCC[C@H](N)C(=O)O` [nor-NOHA, nor-N^ω-hydroxy-L-arginine] the Bt intracellular survival [9] was “decrease”, the Bps intracellular survival [13] was “decrease in B. pseudomallei intracellular survival” and the “NO (nitrite) levels” value [16] was “increase in NO levels; also recorded: increase in nitrite levels”. For the same compound, the NO levels [18] was “increase in NO levels”.
